The record followed here is US20190352276A1, “INHIBITORS OF BRUTON'S TYROSINE KINASE” (Joint Stock Company "Biocad", priority 2016, published 2019).

The nature of series [1]: Chemical stability in artificial gastric fluid (SGF without enzymes). The following applies: 10 μM in SGF without enzymes, pH=1.4, 37° C.
The nature of series [2]: General cytotoxicity on HepG2 cells (CC50; therapeutic index CC50 HepG2/IC50 Mino). It counts as cell-based. The settings on record: human, HepG2 cells (hepatocellular carcinoma), 72 hours, Alamar Blue. As for the experimental part:
(§1) The CC50 values were determined in the test for General cytotoxicity on HepG2 cells (hepatocellular carcinoma, ATCC® HB-8065™). 2*10^4 cells (in 50 μl) per well were seeded in 96-well plates (Corning, #3599) in DMEM medium (PanEco, #S420p), after 24 h of incubation 150 μl of candidate compounds were added to each well in the range of final concentrations from 200 μM to 4 μM and the plate was incubated in a total volume of 200 μl for 72 hours. Viability of the cells was assessed using Alamar Blue dye (Invitrogen, #DAL 1100). CC50 was determined similarly (table 10).
(§2) The relationship between toxic (CC50) and a therapeutic (IC50) effects of the dose is the therapeutic index, which can be expressed as the ratio between CC50 (HepG2) (general cytotoxicity of the candidate) and IC50 (Mino) (antiproliferative activity on the target cells): […]
A general note: The colour change of resazurin is a common sign of viable cells or microbes.

In series [3] the test system is HepG2 cells (hepatocellular carcinoma). The series is described as above. It counts as cell-based. The settings on record: therapeutic index. How it is done: as §1, §2
In series [4] the test system is Mino (mantle cell lymphoma). Nature of the series: Antiproliferative activity, Mino cells (Alamar Blue). In kind it is cell-based. The settings on record: Homo sapiens. As for the experimental part:
(§3) Antiproliferative activity of BTK inhibitors was measured in cell-based bioassay on B-cells cultures: Mino (mantle cell lymphoma, ATCC® CRL-3000™), Z-138 (mantle cell lymphoma, ATCC® CRL-3001™) and DOHH2 (follicular lymphoma, Creative Bioarray CSC-C0219) using cell viability reagent Alamar Blue (Invitrogen, #DAL 1100). Cells were cultured in 10% FB S-supplemented (HyClone, #SH3008803/Gibco, #16140-071) RPMI-1640 (PanEco, #S330p) for at least 1 passage after thawing, washed with PBS and passaged in 96-well culture plates (Corning, #3599) with growth medium with 10% FBS (HyClone, #SH3008803/Gibco, #16140-071) and antibiotic (50 μg/ml of gentamicin (Biolot, #1.3.16))≈3*10^4 cells in 50 μl of medium per well.
(§4) The compounds were dissolved in DMSO and diluted with the assay medium to final concentrations ranging from […]. 150 μl of each diluted compound were then added to each well (final concentration of DMSO was less than 1%) and incubated at 37° C. in an incubator under 5% of CO2 for 72 h. After incubation, 20 μl of Alamar Blue reagent (Invitrogen, #DAL1100) were added to each well. The plates were shaked on an orbital shaker (Biosan, Latvia) and then incubated for 14-16 hours at 37° C. in the incubator.
(§5) The number of living cells were estimated, measuring the fluorescence signal at the excitation wavelength (REx) of 540 nm and the emission wavelength (λEm) of 590 nm on a microplate reader (Tecan Infinite M200Pro, Switzerland).
(§6) For each compound, IC50 was calculated using Magellan 7.2 software (Tecan, Switzerland) approximating experimental points by four-parameter logistic model with the optimization by Levenberg-Marquardt.

Series [5] has as its system Z-138 (mantle cell lymphoma). Nature of the series: Antiproliferative activity, Z-138 cells (Alamar Blue). In kind it is cell-based. The settings on record: Homo sapiens. How it is done:
as §3, §4, §5, §6

The mark [6] stands for this setting: Table 10, average of several tests.
Where [7] appears, read: Table 10, 72 h, average of several tests.

Regarding `C=CC(=O)N1CCC[C@@H](n2nc(-c3ccc(Oc4ccncc4C(N)=O)cc3)c3cncc(F)c32)C1` [BCD-BTK-246, (R)-4-(4-(1-(1-acryloylpiperidin-3-yl)-7-fluoro-1H-pyrazolo[4,3-c]pyridin-3-yl)phenoxy)nicotinamide], the “Amount of substance in the sample in % (chemical stability)” value (“Amount of substance in the sample in %” below) in series [1] came to 100%. The CC50 (as a rule, the concentration that lowers cell viability or growth by half) at 72 h in series [2] (setting [6]) is > 100 µM. For the same compound, in series [3] (Table 10), the “CC50 (HepG2)/IC50 (Mino)” value is on record as >3.09. Further, the IC50 (in general, the point on the concentration scale where inhibition reaches its midpoint) in series [4] (setting [7]) amounted to 32.4 µM; in series [5] (setting [7]) it was 23.7 µM.

For the compound `C=CC(=O)N1CCC[C@@H](n2nc(-c3ccc(C(=O)Nc4cc(C(F)(F)CC)ccn4)cc3)c3cncc(C#N)c32)C1` [BCD-BTK-219, 4-{7-cyano-1-[1-(prop-2-enoyl)piperidin-3-yl]-1H-pyrazolo[4,3-c]pyridin-3-yl}-N-[4-(1,1-difluoropropyl)pyridin-2-yl] benzamide], the “Amount of substance in the sample in %” value in series [1] is on record as 96.7%. The CC50 at 72 h in series [2] (setting [6]) is > 100 µM. In series [3] (Table 10), the “CC50 (HepG2)/IC50 (Mino)” value was >9.95. Further, the half-maximal inhibitory concentration (IC50) was 10.1 µM in series [4] (setting [7]) and ~50 µM in series [5] (setting [7]).

For the compound `C=CC(=O)Oc1cc(C#N)c2c(c1)c(-c1ccc(-n3ccc(=O)cc3)cc1)nn2[C@@H]1CCCN(C(=O)C=C)C1` [BCD-BTK-118, (R)-1-(1-acryloylpiperidin-3-yl)-7-cyano-3-(4-(4-oxopyridin-1(4H)-yl)phenyl)-1H-indazol-5-yl acrylate], in series [1], the “Amount of substance in the sample in %” value turned out to be 95.4%. In series [2] (setting [6]), the CC50 at 72 h came out at 66.2 µM. Further, the “CC50 (HepG2)/IC50 (Mino)” value in series [3] (Table 10) came out at 4.83. Further, the IC50 in series [4] (setting [7]) was 13.7 µM; in series [5] (setting [7]), 7.84 µM.

With `C=CC(=O)N1CCC[C@@H](n2nc(-c3ccc(-n4ccc(=O)cc4)nc3)c3cncc(Cl)c32)C1` [BCD-BTK-56, (R)-5′-(1-(1-acryloylpiperidin-3-yl)-7-chloro-1H-pyrazolo[4,3-c]pyridin-3-yl)-4H-[1,2′-bipyridin]-4-one], in series [1], the “Amount of substance in the sample in %” value is 99.0%. Moreover, the CC50 at 72 h in series [2] (setting [6]) was > 50 µM. The “CC50 (HepG2)/IC50 (Mino)” value in series [3] (Table 10) is reported as >1.54. Besides, the IC50 amounted to 32.5 µM in series [4] (setting [7]) and 30.5 µM in series [5] (setting [7]).

Turning to `C=CC(=O)N1CCC[C@@H](n2nc(-c3ccc(-n4ccc(=O)cc4)cc3)c3c(Cl)c(O)cnc32)C1` [BCD-BTK-13, (R)-1-(4-(1-(1-acryloylpiperidin-3-yl)-4-chloro-5-hydroxy-1H-pyrazolo[3,4-b]pyridin-3-yl)phenyl)pyridin-4(1H)-one], the “Amount of substance in the sample in %” value in series [1] turned out to be 91.0%. The CC50 at 72 h in series [2] (setting [6]) was > 100 µM. In addition, the “CC50 (HepG2)/IC50 (Mino)” value in series [3] (Table 10) is recorded as >2.70. Also, the IC50 in series [4] (setting [7]) is 37.1 µM; in series [5] (setting [7]) it was > 50 µM.

In series [2] (setting [6]), `C=CC(=O)N1CC(n2nc(-c3ccc(Oc4ccncc4)cc3)c3cncc(Cl)c32)C1` [BCD-BTK-282, 1-(3-(7-chloro-3-(4-(pyridin-4-yloxy)phenyl)-1H-pyrazolo[4,3-c]pyridin-1-yl)azetidin-1-yl)prop-2-en-1-one] showed a CC50 at 72 h of 9.45 µM. In series [3] (Table 10), the “CC50 (HepG2)/IC50 (Mino)” value amounted to 2.35. For the same compound, the IC50 in series [4] (setting [7]) was 4.02 µM; in series [5] (setting [7]), 4.3 µM.

As for `C=CC(=O)Oc1cnc2c(c(-c3ccc(-n4ccc(=O)cc4)cc3)nn2[C@@H]2CCCN(C(=O)C=C)C2)c1Cl` [BCD-BTK-136, (R)-1-(1-acryloylpiperidin-3-yl)-4-chloro-3-(4-(4-oxopyridin-1(4H)phenyl)-1H-pyrazolo[3,4-b]pyridin-5-yl acrylate], the “Amount of substance in the sample in %” value in series [1] amounted to 89.9%. The CC50 at 72 h in series [2] (setting [6]) is > 100 µM. In addition, the “CC50 (HepG2)/IC50 (Mino)” value in series [3] (Table 10) is reported as >7.97. The half-inhibitory concentration (IC50) in series [4] (setting [7]) is 12.5 µM; in series [5] (setting [7]), > 50 µM.

As for `C=CC(=O)N1CCC[C@@H](n2nc(-c3ccc(Oc4ccncc4)cc3)c3cc(O)cc(C#N)c32)C1` [BCD-BTK-137], the “Amount of substance in the sample in %” value in series [1] is 94.3%. In series [2] (setting [6]), the CC50 at 72 h came to 65.9 µM. Further, the “CC50 (HepG2)/IC50 (Mino)” value in series [3] (Table 10) worked out at 5.70. In addition, the IC50 is 11.6 µM in series [4] (setting [7]) and 25.6 µM in series [5] (setting [7]).

Turning to `C=CC(=O)N1CCC[C@@H](n2nc(-c3ccc(-n4ccc(=O)cc4)cc3)c3cc(N)c(C)nc32)C1` [BCD-BTK-119, (R)-1-(4-(1-(1-acryloylpiperidin-3-yl)-5-amino-6-methyl-1H-pyrazolo[3,4-b]pyridin-3-yl)phenyl) pyridin-4(1H)-one], in series [1], the “Amount of substance in the sample in %” value was determined as 100.0%. For the same compound, the cytotoxic concentration (CC50) at 72 h in series [2] (setting [6]) was > 100 µM. Moreover, the “CC50 (HepG2)/IC50 (Mino)” value in series [3] (Table 10) was >8.16. For the same compound, the IC50 in series [4] (setting [7]) is 12.3 µM; in series [5] (setting [7]) it was 25.5 µM.

In the case of `C=CC(=O)N1CC[C@H](Cn2nc(-c3ccc(C(=O)Nc4ccccn4)cc3)c3cncc(Cl)c32)C1` [BCD-BTK-285, (S)-4-(1-((1-acryloylpyrrolidin-3-yl)methyl)-7-chloro-1H-pyrazolo[4,3-c]pyridin-3-yl)-N-(pyridin-2-yl)benzamide], in series [1], the “Amount of substance in the sample in %” value turned out to be 100%. For the same compound, in series [2] (setting [6]), the CC50 at 72 h was > 100 µM. In series [3] (Table 10), the “CC50 (HepG2)/IC50 (Mino)” value is >9.91. Besides, the IC50 was 10.1 µM in series [4] (setting [7]) and > 34.6 µM in series [5] (setting [7]).

For the compound `C=CC(=O)N1CC[C@@H](Cn2nc(-c3ccc(C(=O)Nc4ccccn4)cc3)c3cncc(Cl)c32)C1` [BCD-BTK-284, (R)-4-(1-((1-acryloylpyrrolidin-3-yl)methyl)-7-chloro-1H-pyrazolo[4,3-c]pyridin-3-yl)-N-(pyridin-2-yl)benzamide], the “Amount of substance in the sample in %” value in series [1] is 100%. Moreover, the half-maximal cytotoxic concentration (CC50) at 72 h in series [2] (setting [6]) was > 100 µM. Besides, the “CC50 (HepG2)/IC50 (Mino)” value in series [3] (Table 10) is given as >3.59. For the same compound, the results for the IC50 in series [4] (setting [7]) and in series [5] (setting [7]) were 27.9 µM and 115 µM, respectively.

As for `C=CC(=O)N1CCC[C@@H](n2nc(-c3ccc(-n4ccc(=O)cc4)cc3)c3cc(O)cc(C#N)c32)C1` [BCD-BTK-122, (R)-1-(1-acryloylpiperidin-3-yl)-5-hydroxy-3-(4-(4-oxopyridin-1(4H)-yl)phenyl)-1H-indazol-7-carbonitrile], in series [1], the “Amount of substance in the sample in %” value was 97.5%. The CC50 at 72 h in series [2] (setting [6]) is > 100 µM. In addition, the “CC50 (HepG2)/IC50 (Mino)” value in series [3] (Table 10) was >2.81. The results for the IC50 in series [4] (setting [7]) and in series [5] (setting [7]) were 35.6 µM and 36.5 µM, respectively.

In series [2] (Table 11), `C=CC(=O)N1CCC[C@@H](n2nc(-c3ccc(Oc4ccccc4)cc3)c3c(N)ncnc32)C1` [Ibrutinib, ibrutinib, reference compound] displayed a CC50 at 72 h of 54.9 µM. The “CC50 (HepG2)/IC50 (Mino)” value in series [3] (Table 11) is 5.98. The IC50 in series [4] (Table 11, 72 h) turned out to be 9.18 µM; in series [5] (Table 11, 72 h), 15.1 µM.

For `CC#CC(=O)N1CC(n2nc(-c3ccc(Oc4ccncc4)cc3)c3cncc(Cl)c32)C1` [BCD-BTK-281, 1-(3-(7-chloro-3-(4-(pyridin-4-yloxy)phenyl)-1H-pyrazolo[4,3-c]pyridin-1-yl)azetidin-1-yl)but-2-yn-1-one], half-maximal cytotoxicity in series [2] (setting [6]) (CC50 at 72 h) was put at 15.8 µM. In addition, the “CC50 (HepG2)/IC50 (Mino)” value in series [3] (Table 10) came out at 2.81. For the same compound, the IC50 in series [4] (setting [7]) worked out at 5.63 µM; in series [5] (setting [7]), 4.67 µM.

As for `C=CC(=O)N1CCC[C@@H](n2nc(-c3ccc(C(=O)Nc4ncccc4F)cc3)c3cncc(F)c32)C1` [BCD-BTK-249, (R)-4-(1-(1-acryloylpiperidin-3-yl)-7-fluoro-1H-pyrazolo[4,3-c]pyridin-3-yl)-N-(3-fluoropyridin-2-yl)benzamide], the CC50 at 72 h in series [2] (setting [6]) was ~100 µM. The “CC50 (HepG2)/IC50 (Mino)” value in series [3] (Table 10) is recorded as >3.47. Further, the results for the IC50 in series [4] (setting [7]) and in series [5] (setting [7]) were 28.8 µM and > 50 µM, respectively.
